Experimental data reported in patent US9247745B2, “Substituted pyridazines for controlling invertebrate pests” (BASF SE, priority 2010, dated 2016).

Assays:
Format in all cases: in vivo
[1] = tested on: Silverleaf whitefly (Bemisia argentifolii, adult); assay: Silverleaf whitefly (Bemisia argentifolii, adult) on sprayed cotton plants; details: 72 h, spray on cotton plants, 3 days after treatment, read-out: mortality in comparison with untreated controls
Description: II.7 Silverleaf Whitefly (Bemisia argentifolii, Adult)
(§1) The active compounds were formulated in cyclohexanone as a 10,000 ppm solution supplied in 1.3 ml ABgene® tubes. These tubes were inserted into an automated electrostatic sprayer equipped with an atomizing nozzle and they served as stock solutions for which lower dilutions were made in 50% acetone:50% water (v/v). A nonionic surfactant (Kinetic®) was included in the solution at a volume of 0.01% (v/v).
Cotton plants at the cotyledon stage (one plant per pot) were sprayed by an automated electrostatic plant sprayer equipped with an atomizing spray nozzle. The plants were dried in the sprayer fume hood and then removed from the sprayer. Each pot was placed into a plastic cup and 10 to 12 whitefly adults (approximately 3-5 days old) were introduced. The insects were collected using an aspirator and 0.6 cm, nontoxic Tygon® tubing (R-3603) connected to a barrier pipette tip. The tip, containing the collected insects, was then gently inserted into the soil containing the treated plant, allowing insects to crawl out of the tip to reach the foliage for feeding. Cups were covered with a reusable screened lid (150-micron mesh polyester screen PeCap from Tetko, Inc.). […] Mortality was assessed 3 days after treatment, compared to untreated control plants.

[2] = tested on: Green peach aphid (Myzus persicae, mixed life stages); assay: Green peach aphid (Myzus persicae, mixed life stages) foliar spray on infested bell pepper plants; details: 120 h, after 5 days, read-out: mortality in comparison with untreated controls
Description: II.2 Green Peach Aphid (Myzus persicae, Mixed Life Stages)
as §1
Bell pepper plants at the first true-leaf stage were infested prior to treatment by placing heavily infested leaves from the main colony on top of the treatment plants. Aphids were allowed to transfer overnight to accomplish an infestation of 30-50 aphids per plant and the host leaves were removed. The infested plants were then sprayed by an automated electrostatic plant sprayer equipped with an atomizing spray nozzle. The plants were dried in the sprayer fume hood, removed, and then maintained in a growth room under fluorescent lighting in a 24-hr photoperiod at 25° C. and 20-40% relative humidity. Aphid mortality on the treated plants, relative to mortality on untreated control plants, was determined after 5 days.

[3] = tested on: green peach aphid (Myzus persicae); assay: Green peach aphid (Myzus persicae) systemic test, artificial diet under membrane; details: 72 h, 2500 ppm in aphid diet, 3 days, read-out: mortality in comparison with untreated controls
Text: II.6 Activity Against Green Peach Aphid (Myzus persicae)
For evaluating control of green peach aphid (Myzus persicae) through systemic means the test unit consisted of 96-well-microtiter plates containing liquid artificial diet under an artificial membrane.
The compounds were formulated using a solution containing 75% v/v water and 25% v/v DMSO. Different concentrations of formulated compounds were pipetted into the aphid diet, using a custom built pipetter, at two replications. After application, 5 to 8 adult aphids were placed on the artificial membrane inside the microtiter plate wells. The aphids were then allowed to suck on the treated aphid diet and incubated at about 23+1° C. and about 50+5% relative humidity for 3 days. Aphid mortality and fecundity was then visually assessed.

[4] = tested on: Cowpea aphid (Aphis craccivora); assay: Cowpea aphid (Aphis craccivora) spray on potted cowpea plants; details: assessed after 24, 72, and 120 hours, read-out: mortality in comparison with untreated controls
Description: II.3 Cowpea Aphid (Aphis craccivora)
The active compounds were formulated in 50:50 (vol:vol) acetone:water. The test solution was prepared at the day of use.
Potted cowpea plants colonized with 100-150 aphids of various stages were sprayed after the pest population had been recorded. Population reduction was assessed after 24, 72, and 120 hours.

[5] = tested on: Cotton aphid (Aphis gossypii, mixed life stages); assay: Cotton aphid (Aphis gossypii, mixed life stages) foliar spray on infested cotton plants; details: 120 h, after 5 days, read-out: mortality in comparison with untreated controls
Description: II.1 Cotton Aphid (Aphis gossypii, Mixed Life Stages)
as §1
Cotton plants at the cotyledon stage were infested with aphids prior to treatment by placing a heavily infested leaf from the main aphid colony on top of each cotyledon. Aphids were allowed to transfer overnight to accomplish an infestation of 80-100 aphids per plant and the host leaf was removed. The infested plants were then sprayed by an automated electrostatic plant sprayer equipped with an atomizing spray nozzle. The plants were dried in the sprayer fume hood, removed from the sprayer, and then maintained in a growth room under fluorescent lighting in a 24-hr photoperiod at 25° C. and 20-40% relative humidity. Aphid mortality on the treated plants, relative to mortality on untreated control plants, was determined after 5 days.

[6] = tested on: Vetch aphid (Megoura viciae); assay: Vetch aphid (Megoura viciae) bean leaf disk microtiter plate test; details: foliar, 144 h, test solution 2500 mg/L, bean leaf disks, 6 days
Description: II.4 Vetch Aphid (Megoura viciae)
The active compounds were formulated in 1:3 (vol:vol) DMSO:water with different concentrations of formulated compounds.
Bean leaf disks were placed into microtiterplates filled with 0.8% agar-agar and 2.5 ppm OPUS™. The leaf disks were sprayed with 2.5 μl of the test solution and 5 to 8 adult aphids were placed into the microtiterplates which were then closed and kept at 23±1° C. and 50±5% relative humidity under fluorescent light for 6 days. Mortality was assessed on the basis of vital, reproduced aphids. Aphid mortality and fecundity was then visually assessed.

**Q.** With Cc1c(C(=O)/N=c2\ccn(C)nc2)cnn1CC(F)(F)F [Compound 7, 5-methyl-1-(2,2,2-trifluoro-ethyl)-1H-pyrazole-4-carboxylic acid [1-methyl-1H-pyridazin-(4E)-ylidene]-amide] as the molecule, how does the mortality at 300 ppm [1] read?
**A.** ≥ 75%

**Q.** And the mortality at 300 ppm [2]?
**A.** ≥ 75%

**Q.** What about the mortality at 2500 ppm [3] of the same molecule?
**A.** 100%

**Q.** What about the mortality at 300 ppm [4] of the same molecule?
**A.** ≥ 90%

**Q.** What about the mortality at 300 ppm [5] of the same molecule?
**A.** ≥ 75%

**Q.** And the mortality at 2500 µg/mL [6]?
**A.** ≥ 90%
